# Assay results: ChEMBL document CHEMBL3217509, “Discovery of an HIV integrase inhibitor with an excellent resistance profile” (Medchemcomm, 2013)
# pIC50: −log10 of the molar value.
# Key:
# [1] = test system: Human immunodeficiency virus 1; assay: Antiviral activity against HIV1 NL4-3 infected in human MT2 cells after 3 days by human JC53BL cell-based beta-galactosidase reporter gene assay; assay type: functional, organism-based; conditions: Human immunodeficiency virus 1, NL4-3, JC53BL, 72 h
# [2] = Intrinsic clearance in human liver microsomes assessed per mg of protein by LC-MS/MS analysis; assay type: ADME; conditions: read-out: CLH
# [3] = Intrinsic clearance in human liver microsomes assessed per mg of protein by LC-MS/MS analysis in presence of UDPGA; assay type: ADME; conditions: read-out: CLH
# [4] = Intrinsic clearance in human hepatocytes assessed assessed per million of cells by LC-MS/MS analysis; assay type: ADME, cell-based, Hepatocyte; conditions: read-out: CLH
# [5] = Inhibition of DNA polymerase alpha (unknown origin); parameters: species or system Homo sapiens
# [6] = Inhibition of DNA polymerase gamma (unknown origin); parameters: species or system Homo sapiens
# [7] = Inhibition of DNA polymerase beta (unknown origin); parameters: species or system Homo sapiens
SMILES,pIC50 [1],microsomal CLint [2],microsomal CLint [3],hepatocyte CLint [4],pIC50 [5],pIC50 [6],pIC50 [7]
Cc1nc2c(ncc3c2ccn3Cc2ccc(F)cc2)c(=O)n1O,6.35,21.3 µL/min/mg,80.2 µL/min/mg,14.1 µL/min/1e6 cells,,,
Cc1cn([C@H]2C[C@H](N=[N+]=[N-])[C@@H](COP(=O)(O)OP(=O)(O)OP(=O)(O)O)O2)c(=O)[nH]c1=O [ZIDOVUDINE TRIPHOSPHATE],,,,,5.14,5.43,5.71
O=C1Nc2ccc(Cl)cc2[C@@](C#CC2CC2)(C(F)(F)F)O1 [EFAVIRENZ],,,,,< 4.30,≥ 4.30,< 4.30
CCOc1cc(F)ccc1Cn1ccc2c3c(ncc21)C(=O)N(O)CC3,8.39,< 8 µL/min/mg,5 µL/min/mg,23.2 µL/min/1e6 cells,,,
